The target in assay [1] is T1, biotin-labeled DsbA (Escherichia coli, UniProt P0AEG4).
T1 construct: purchased abcam
T1 sequence (P0AEG4 20-208): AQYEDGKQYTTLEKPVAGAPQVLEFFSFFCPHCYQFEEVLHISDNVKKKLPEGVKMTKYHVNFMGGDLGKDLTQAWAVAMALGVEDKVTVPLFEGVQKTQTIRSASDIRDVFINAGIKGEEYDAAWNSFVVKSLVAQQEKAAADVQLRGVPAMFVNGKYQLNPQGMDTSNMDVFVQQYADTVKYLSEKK
The assay is described as follows: Peptide microarray binding of biotin-labeled DsbA, Cy5-streptavidin fluorescence detection. Particulars: fluorescent signal intensity measured by peptide microarray. The text has this:
Briefly, the peptide array was synthesized by light-directed array synthesis in a Roche NimbleGen Maskless Array Synthesizer (MAS) using an amino-functionalized substrate as previously reported (Forsström, et al., “Proteome-wide Epitope Mapping of Antibodies Using Ultra-dense Peptide Arrays,” Molecular & Cellular Proteomics 13:1585-1597 (2014) and Lyamichev, et al., “Stepwise Evolution Improves Identification of Diverse Peptides Binding to a Protein Target,” Nature Scientific Reports 7:12116 (2017), both of which are incorporated herein by reference in their entireties). L-amino acids were synthesized by Orgentis Chemicals GmbH. Custom amino acids were purchased from Lifetein. Cy5™-streptavidin was purchased from GE Healthcare, Blocker™ BSA (10%) in PBS from ThermoFisher, and SecureSeal™ hybridization chambers from Grace Bio-Labs. Final side chain deprotection was performed by incubating the microarray in 60 mM EDT and 25 mM TIPS in 95% TFA (v/v) for 30 min at room temperature. The microarray was then washed twice in methanol for 30 seconds, once in 1×TBST for 1 min, twice in TBS for 30 seconds, and then spun dry in a microcentrifuge equipped with an array holder. […] Here, 2.6 μL biotin-labeled DsbA (1.5 mg/mL, abcam) was incubated on the array in 49 μL binding buffer containing 100 mM HEPES (pH 7.3), 1% BSA, 250 mM NaCl, 20 mM L-glutathione-reduced, and 0.2 mM L-glutathione-oxidized in a hybridization chamber overnight at 4° C. After incubation, arrays were washed in water for 15 seconds placed directly into a streptavidin-Cy5 detection bath. Positive binding to DsbA was determined by the detection of Streptavidin-Cy5. Streptavidin-Cy5 binding to all arrays was performed with 20 μL streptavidin-Cy5 (1 μg/mL) in 30 mL binding buffer containing 10 mM Tris-HCl (pH 7.4), 1% Casein, 0.05% Tween-20 in a 30 mL pap jar for 1 hour at room temperature. After incubation, arrays were washed in 20 mM Tris-HCl (pH 7.8), 0.2 M NaCl, 1% SDS for 30 seconds followed by a 30 seconds wash in water. The arrays were then dried by spinning in a microcentrifuge equipped with an array holder. Data was analyzed by measuring Cy5 fluorescence intensity of the arrays and extracting data, as previously described in Lyamichev, et al. (2017).
To narrow the number of possible 15-mer peptides in both libraries down to approximately 3 million peptides, a calculation was run to select for the maximum diversity of 6mer peptide sequences. Each 15-mer sequence was replicated two times.

Assay [2] concerns the target T1, biotin-labeled DsbA. The assay is described as follows: Biacore kinetic analysis of peptide binding to immobilized biotin-labeled DsbA. The method, then: The discovered and incrementally optimized novel DsbA-binding peptides were subject to kinetic characterization. Kinetic analysis of the interaction between the discovered peptides and DsbA was performed using a Biacore XI00. Biotin-labeled DsbA (1 uM) was immobilized on streptavidin coated chip (GE Healthcare) to a target level of 1,000 response units in HBS-P+. […] Fourteen dilutions of peptide from 5000 nM to 0.6 nM in HBS-P+ were flowed over the DsbA coated chip in triplicate with a contact time of 120 seconds and a dissociation time of 600 seconds. […] All peptides were amidated on the C-terminus.

No end group written: not given here.

Consider VILGQCLKQ-NH2, for which the “SIGNAL INTENSITY” value on biotin-labeled DsbA [1] is 965.

As to WQYENWAITKWQCVK-NH2, the “SIGNAL INTENSITY” value on biotin-labeled DsbA [1] is listed as 1427.

For the substance PSPWATCDF-NH2, the “SIGNAL INTENSITY” value on biotin-labeled DsbA [1] is 82.

VIGQCLKN-NH2: at biotin-labeled DsbA [1], the “SIGNAL INTENSITY” value is 588.

On to HNWAAQCLKDQAKL-NH2, for which, on biotin-labeled DsbA [1], the “SIGNAL INTENSITY” value stood at 1759. For the same substance, at biotin-labeled DsbA [2], the dissociation rate constant (koff) is 0.0448 s⁻¹ and the kon turned out to be 509000 M⁻¹ s⁻¹.

On to DFWHGDTCKVTQFDQ-NH2, for which, at biotin-labeled DsbA [1], the “SIGNAL INTENSITY” value was 1750. On biotin-labeled DsbA [2], this substance came in with a koff of 0.0271 s⁻¹ and a kon of 130000 M⁻¹ s⁻¹.

Regarding VIVGQCLKK-NH2, the “SIGNAL INTENSITY” value at biotin-labeled DsbA [1] turned out to be 282.

Consider NDYQYKGQQCLDPKY-NH2, for which the “SIGNAL INTENSITY” value at biotin-labeled DsbA [1] worked out at 3623. At biotin-labeled DsbA [2], this substance displayed a koff of 0.0246 s⁻¹ and an on-rate constant (kon) of 515000 M⁻¹ s⁻¹.

For the substance YVYGMCWKDYTTDK-NH2, the “SIGNAL INTENSITY” value on biotin-labeled DsbA [1] was determined as 2297. Further, at biotin-labeled DsbA [2], the koff worked out at 0.057 s⁻¹ and the kon came to 728000 M⁻¹ s⁻¹.

For DFWHGEQCKVTQFDQ-NH2, the “SIGNAL INTENSITY” value on biotin-labeled DsbA [1] came to 4590. On biotin-labeled DsbA [2], this substance came in with a koff of 0.0139 s⁻¹ and a kon of 259000 M⁻¹ s⁻¹.

Regarding HNWAAQCLNPDQAKL-NH2, the “SIGNAL INTENSITY” value on biotin-labeled DsbA [1] is on record as 2640. Moreover, on biotin-labeled DsbA [2], the koff turned out to be 0.0292 s⁻¹ and the kon was 510000 M⁻¹ s⁻¹.

For YVYGMCWKDYTDTDK-NH2, the “SIGNAL INTENSITY” value on biotin-labeled DsbA [1] worked out at 2114. On biotin-labeled DsbA [2], this substance had a koff of 0.0627 s⁻¹ and an association rate constant (kon) of 538000 M⁻¹ s⁻¹.

Regarding DFWHGETCKVTQFDQ-NH2, the “SIGNAL INTENSITY” value on biotin-labeled DsbA [1] is reported as 1801. Moreover, on biotin-labeled DsbA [2], the koff was found to be 0.0185 s⁻¹ and the kon was found to be 220000 M⁻¹ s⁻¹.

Consider SIIGMCYKKDPS-NH2, for which, on biotin-labeled DsbA [1], the “SIGNAL INTENSITY” value is reported as 1365.
